# Assay results: BigSolDB 2.1
smiles,measurement,setting,value
OC[C@H]1O[C@@H](Oc2c(O)cc(O)cc2/C=C/c2ccc(O)cc2)[C@H](O)[C@@H](O)[C@@H]1O,solubility (mole fraction),"in DMF, 278.15 K",0.0145
same,solubility (mole fraction),"in DMF, 283.15 K",0.0175
same,solubility (mole fraction),"in DMF, 288.15 K",0.0214
same,solubility (mole fraction),"in DMF, 293.15 K",0.0255
same,solubility (mole fraction),"in DMF, 298.15 K",0.0311
same,solubility (mole fraction),"in DMF, 303.15 K",0.0369
same,solubility (mole fraction),"in DMF, 308.15 K",0.0442
same,solubility (mole fraction),"in DMF, 313.15 K",0.0522
same,solubility (mole fraction),"in DMF, 318.15 K",0.0614
same,solubility (mole fraction),"in THF, 278.15 K",0.0128
same,solubility (mole fraction),"in THF, 283.15 K",0.0157
same,solubility (mole fraction),"in THF, 288.15 K",0.0191
same,solubility (mole fraction),"in THF, 293.15 K",0.0231
same,solubility (mole fraction),"in THF, 298.15 K",0.0277
same,solubility (mole fraction),"in THF, 303.15 K",0.0331
same,solubility (mole fraction),"in THF, 308.15 K",0.0393
same,solubility (mole fraction),"in THF, 313.15 K",0.0464
same,solubility (mole fraction),"in THF, 318.15 K",0.0545
same,solubility (mole fraction),"in acetone, 278.15 K",0.0121
same,solubility (mole fraction),"in acetone, 283.15 K",0.0149
same,solubility (mole fraction),"in acetone, 288.15 K",0.0181
same,solubility (mole fraction),"in acetone, 293.15 K",0.0219
same,solubility (mole fraction),"in acetone, 298.15 K",0.0264
same,solubility (mole fraction),"in acetone, 303.15 K",0.0315
same,solubility (mole fraction),"in acetone, 308.15 K",0.0365
same,solubility (mole fraction),"in acetone, 313.15 K",0.0443
same,solubility (mole fraction),"in acetone, 318.15 K",0.052
same,solubility (mole fraction),"in acetonitrile, 278.15 K",0.00281
same,solubility (mole fraction),"in acetonitrile, 283.15 K",0.00349
same,solubility (mole fraction),"in acetonitrile, 288.15 K",0.0043
same,solubility (mole fraction),"in acetonitrile, 293.15 K",0.00526
same,solubility (mole fraction),"in acetonitrile, 298.15 K",0.00639
same,solubility (mole fraction),"in acetonitrile, 303.15 K",0.00772
same,solubility (mole fraction),"in acetonitrile, 308.15 K",0.00927
same,solubility (mole fraction),"in acetonitrile, 313.15 K",0.0111
same,solubility (mole fraction),"in acetonitrile, 318.15 K",0.0131
same,solubility (mole fraction),"in ethanol, 278.15 K",0.00757
same,solubility (mole fraction),"in ethanol, 283.15 K",0.00881
same,solubility (mole fraction),"in ethanol, 288.15 K",0.0108
same,solubility (mole fraction),"in ethanol, 293.15 K",0.0136
same,solubility (mole fraction),"in ethanol, 298.15 K",0.0159
same,solubility (mole fraction),"in ethanol, 303.15 K",0.0199
same,solubility (mole fraction),"in ethanol, 308.15 K",0.0232
same,solubility (mole fraction),"in ethanol, 313.15 K",0.0281
same,solubility (mole fraction),"in ethanol, 318.15 K",0.0326
same,solubility (mole fraction),"in ethyl acetate, 278.15 K",0.00441
same,solubility (mole fraction),"in ethyl acetate, 283.15 K",0.00543
same,solubility (mole fraction),"in ethyl acetate, 288.15 K",0.00665
same,solubility (mole fraction),"in ethyl acetate, 293.15 K",0.00828
same,solubility (mole fraction),"in ethyl acetate, 298.15 K",0.00987
same,solubility (mole fraction),"in ethyl acetate, 303.15 K",0.0118
same,solubility (mole fraction),"in ethyl acetate, 308.15 K",0.0139
same,solubility (mole fraction),"in ethyl acetate, 313.15 K",0.0165
same,solubility (mole fraction),"in ethyl acetate, 318.15 K",0.0192
same,solubility (mole fraction),"in isopropanol, 278.15 K",0.00535
same,solubility (mole fraction),"in isopropanol, 283.15 K",0.00652
same,solubility (mole fraction),"in isopropanol, 288.15 K",0.00838
same,solubility (mole fraction),"in isopropanol, 293.15 K",0.01
same,solubility (mole fraction),"in isopropanol, 298.15 K",0.0122
same,solubility (mole fraction),"in isopropanol, 303.15 K",0.0146
same,solubility (mole fraction),"in isopropanol, 308.15 K",0.0174
same,solubility (mole fraction),"in isopropanol, 313.15 K",0.0205
same,solubility (mole fraction),"in isopropanol, 318.15 K",0.0238
same,solubility (mole fraction),"in methanol, 278.15 K",0.00794
same,solubility (mole fraction),"in methanol, 283.15 K",0.00978
same,solubility (mole fraction),"in methanol, 288.15 K",0.0121
same,solubility (mole fraction),"in methanol, 293.15 K",0.0149
same,solubility (mole fraction),"in methanol, 298.15 K",0.0181
same,solubility (mole fraction),"in methanol, 303.15 K",0.0215
same,solubility (mole fraction),"in methanol, 308.15 K",0.0261
same,solubility (mole fraction),"in methanol, 313.15 K",0.0316
same,solubility (mole fraction),"in methanol, 318.15 K",0.0377
same,solubility (mole fraction),"in n-propanol, 278.15 K",0.00601
same,solubility (mole fraction),"in n-propanol, 283.15 K",0.0078
same,solubility (mole fraction),"in n-propanol, 288.15 K",0.00977
same,solubility (mole fraction),"in n-propanol, 293.15 K",0.012
same,solubility (mole fraction),"in n-propanol, 298.15 K",0.014
same,solubility (mole fraction),"in n-propanol, 303.15 K",0.0166
same,solubility (mole fraction),"in n-propanol, 308.15 K",0.0196
same,solubility (mole fraction),"in n-propanol, 313.15 K",0.0228
same,solubility (mole fraction),"in n-propanol, 318.15 K",0.0269
